The source of these data is ChEMBL document CHEMBL3864149, “Design, synthesis and structure-activity relationships of novel phenylalanine-based amino acids as kainate receptors ligands” (Bioorg Med Chem Lett, 2016).

For assay [1], the target named is Glutamate receptor ionotropic, kainate 2 (Homo sapiens, UniProt Q13002). The experiment in a line: Displacement of [3H]-kainate from human recombinant GluK2 receptor expressed in HEK293 cell membranes after 60 mins.
In assay [2] the target is T1, Glutamate receptor ionotropic, kainate 5 (Homo sapiens, UniProt Q16478).
T1 sequence (Q16478 whole entry): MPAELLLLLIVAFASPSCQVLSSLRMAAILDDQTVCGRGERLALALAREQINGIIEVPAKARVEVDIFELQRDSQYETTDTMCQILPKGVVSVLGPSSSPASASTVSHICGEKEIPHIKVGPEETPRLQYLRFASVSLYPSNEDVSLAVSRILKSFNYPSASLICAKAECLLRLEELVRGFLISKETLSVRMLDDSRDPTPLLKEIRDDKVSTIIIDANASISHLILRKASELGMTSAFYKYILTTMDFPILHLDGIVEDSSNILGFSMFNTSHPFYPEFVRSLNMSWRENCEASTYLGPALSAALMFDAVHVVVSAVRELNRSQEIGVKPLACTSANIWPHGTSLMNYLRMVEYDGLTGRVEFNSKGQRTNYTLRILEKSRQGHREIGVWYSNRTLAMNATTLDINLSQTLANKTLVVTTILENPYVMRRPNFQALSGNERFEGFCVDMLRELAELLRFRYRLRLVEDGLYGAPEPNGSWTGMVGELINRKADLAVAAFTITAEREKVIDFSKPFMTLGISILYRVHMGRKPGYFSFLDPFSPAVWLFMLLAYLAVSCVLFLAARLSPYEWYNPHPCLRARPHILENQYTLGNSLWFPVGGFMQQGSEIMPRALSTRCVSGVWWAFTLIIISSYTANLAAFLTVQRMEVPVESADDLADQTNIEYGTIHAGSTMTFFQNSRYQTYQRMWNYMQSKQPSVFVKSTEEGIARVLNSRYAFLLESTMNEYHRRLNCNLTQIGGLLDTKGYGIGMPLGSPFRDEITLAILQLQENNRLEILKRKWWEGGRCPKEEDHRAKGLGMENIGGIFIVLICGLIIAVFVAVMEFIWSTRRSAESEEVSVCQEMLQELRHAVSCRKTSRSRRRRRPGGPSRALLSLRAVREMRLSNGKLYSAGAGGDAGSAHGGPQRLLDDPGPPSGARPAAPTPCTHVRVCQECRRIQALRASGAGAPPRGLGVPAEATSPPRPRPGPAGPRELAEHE
Briefly: Displacement of [3H]-kainate from human recombinant GluK5 receptor expressed in HEK293 cell membranes after 60 mins. (Displacement assays read how much labelled ligand stays bound in the presence of the test substance.)

A short description of assay [3]: Displacement of [3H]-AMPA from AMPA receptor in rat brain membranes after 1 hr by liquid scintillation counting method. The format is cell membranes, Membrane.
The nature of assay [4]: Displacement of [3H]-kainate from kainate receptor in rat brain membranes after 1 hr by liquid scintillation counting method. The class given is cell membranes, Membrane.
Assay [5] concerns the target Glutamate receptor ionotropic, kainate 3 (Rattus norvegicus, UniProt P42264). Briefly: Displacement of [3H]-kainate from rat recombinant GluK3 receptor expressed in baculovirus infected insect Sf9 cell membranes after 60 mins.
Assay [6] in a line: Displacement of [3H]-kainate from kainate receptor in rat brain membranes after 60 mins. The class given is cell membranes, Membrane.
The target in assay [7] is Glutamate receptor ionotropic, kainate 1 (Rattus norvegicus, UniProt P22756). The experiment in a line: Displacement of [3H]-NF608 from rat recombinant GluK1 receptor expressed in baculovirus infected insect Sf9 cell membranes after 60 mins.
Chain of Glutamate receptor ionotropic, kainate 1 (P22756 whole entry): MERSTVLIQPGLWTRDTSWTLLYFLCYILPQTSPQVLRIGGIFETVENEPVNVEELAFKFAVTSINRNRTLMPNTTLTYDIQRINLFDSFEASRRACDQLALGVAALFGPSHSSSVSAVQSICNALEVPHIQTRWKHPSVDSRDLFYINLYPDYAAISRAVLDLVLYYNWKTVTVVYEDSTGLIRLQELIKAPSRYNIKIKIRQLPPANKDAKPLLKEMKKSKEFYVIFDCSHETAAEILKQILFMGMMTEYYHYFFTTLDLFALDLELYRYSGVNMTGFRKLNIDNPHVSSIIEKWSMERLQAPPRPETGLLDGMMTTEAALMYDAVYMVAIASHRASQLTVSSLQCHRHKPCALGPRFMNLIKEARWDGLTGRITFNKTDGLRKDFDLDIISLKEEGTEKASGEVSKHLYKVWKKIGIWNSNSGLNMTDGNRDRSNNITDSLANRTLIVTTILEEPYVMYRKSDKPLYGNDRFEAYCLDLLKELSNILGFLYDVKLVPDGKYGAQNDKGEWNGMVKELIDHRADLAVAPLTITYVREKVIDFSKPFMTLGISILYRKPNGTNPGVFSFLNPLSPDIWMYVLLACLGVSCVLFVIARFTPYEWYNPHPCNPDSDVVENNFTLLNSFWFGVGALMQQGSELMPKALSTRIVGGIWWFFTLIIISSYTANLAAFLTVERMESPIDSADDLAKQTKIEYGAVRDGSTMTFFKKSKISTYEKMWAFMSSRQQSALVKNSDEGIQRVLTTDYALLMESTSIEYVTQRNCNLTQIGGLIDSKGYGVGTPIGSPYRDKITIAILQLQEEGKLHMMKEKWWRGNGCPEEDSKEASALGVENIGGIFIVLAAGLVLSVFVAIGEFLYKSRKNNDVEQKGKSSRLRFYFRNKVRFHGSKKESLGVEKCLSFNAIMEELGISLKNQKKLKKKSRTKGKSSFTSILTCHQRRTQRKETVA
A short description of assay [8]: Displacement of [3H]-AMPA from AMPA receptor in rat brain membranes after 30 mins. The format is cell membranes, Membrane.
The species entered for a further assay is Rattus norvegicus. The experiment in a line: Selectivity ratio of Ki for rat recombinant GluK3 receptor to Ki for rat recombinant GluK1 receptor.

Chain of Glutamate receptor ionotropic, kainate 3 (P42264 whole entry): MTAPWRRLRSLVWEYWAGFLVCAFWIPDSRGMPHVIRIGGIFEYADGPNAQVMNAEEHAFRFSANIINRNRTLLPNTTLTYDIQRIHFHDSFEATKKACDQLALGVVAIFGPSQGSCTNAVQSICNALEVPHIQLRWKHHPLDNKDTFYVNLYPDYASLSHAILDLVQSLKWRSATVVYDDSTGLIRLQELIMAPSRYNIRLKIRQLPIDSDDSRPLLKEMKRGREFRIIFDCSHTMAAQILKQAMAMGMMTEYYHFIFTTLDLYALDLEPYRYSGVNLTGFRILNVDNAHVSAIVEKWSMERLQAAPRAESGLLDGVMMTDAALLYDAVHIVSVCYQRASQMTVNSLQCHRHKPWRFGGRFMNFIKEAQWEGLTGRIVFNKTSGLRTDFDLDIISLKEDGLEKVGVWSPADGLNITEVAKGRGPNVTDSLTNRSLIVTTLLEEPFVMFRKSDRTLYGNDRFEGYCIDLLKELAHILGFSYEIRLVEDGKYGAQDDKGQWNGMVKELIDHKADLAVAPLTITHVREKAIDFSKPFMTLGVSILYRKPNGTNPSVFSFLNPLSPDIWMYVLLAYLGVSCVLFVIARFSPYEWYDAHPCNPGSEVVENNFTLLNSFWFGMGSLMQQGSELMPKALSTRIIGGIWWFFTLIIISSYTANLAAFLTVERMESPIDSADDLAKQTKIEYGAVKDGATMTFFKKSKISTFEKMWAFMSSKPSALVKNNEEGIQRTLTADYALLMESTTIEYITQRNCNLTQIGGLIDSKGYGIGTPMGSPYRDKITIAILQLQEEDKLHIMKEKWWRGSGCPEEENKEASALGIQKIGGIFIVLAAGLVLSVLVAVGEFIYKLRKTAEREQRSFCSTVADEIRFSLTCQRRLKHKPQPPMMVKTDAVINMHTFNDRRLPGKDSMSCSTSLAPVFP
Chain of Glutamate receptor ionotropic, kainate 2 (Q13002 whole entry): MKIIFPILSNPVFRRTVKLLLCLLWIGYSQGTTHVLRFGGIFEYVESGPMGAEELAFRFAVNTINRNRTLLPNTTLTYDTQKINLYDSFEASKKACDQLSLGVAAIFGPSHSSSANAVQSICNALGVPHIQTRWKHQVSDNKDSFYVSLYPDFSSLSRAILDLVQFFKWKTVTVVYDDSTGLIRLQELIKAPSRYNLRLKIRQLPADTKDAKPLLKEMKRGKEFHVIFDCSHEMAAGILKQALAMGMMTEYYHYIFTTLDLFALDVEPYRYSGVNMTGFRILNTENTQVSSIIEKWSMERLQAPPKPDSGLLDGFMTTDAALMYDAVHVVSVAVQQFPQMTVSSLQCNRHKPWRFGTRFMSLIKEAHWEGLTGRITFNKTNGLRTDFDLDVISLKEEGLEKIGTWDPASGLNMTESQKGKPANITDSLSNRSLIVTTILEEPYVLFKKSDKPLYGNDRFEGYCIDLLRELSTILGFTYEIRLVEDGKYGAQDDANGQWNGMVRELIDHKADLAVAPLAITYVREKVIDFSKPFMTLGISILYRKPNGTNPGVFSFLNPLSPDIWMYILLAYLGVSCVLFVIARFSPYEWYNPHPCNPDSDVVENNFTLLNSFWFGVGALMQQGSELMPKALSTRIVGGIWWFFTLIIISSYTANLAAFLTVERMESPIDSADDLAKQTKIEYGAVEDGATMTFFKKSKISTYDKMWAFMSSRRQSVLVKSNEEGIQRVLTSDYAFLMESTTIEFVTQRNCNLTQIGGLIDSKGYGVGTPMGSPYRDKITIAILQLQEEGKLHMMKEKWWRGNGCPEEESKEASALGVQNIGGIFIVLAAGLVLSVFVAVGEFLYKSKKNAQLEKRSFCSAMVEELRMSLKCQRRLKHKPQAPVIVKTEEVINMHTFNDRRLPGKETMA

Take `O=C(O)[C@@H]1C[C@H]2C[C@@H](CN3CC(F)(F)C[C@H]3C(=O)O)CC[C@H]2CN1`: the Ki in assay [1] was 0.05 µM; in assay [2], 8.9 µM.

As for `CC(C)(C)c1onc(OCP(=O)(O)O)c1C[C@H](N)C(=O)O`, the figures for the IC50 in assay [3] and in assay [4] were 16 µM and > 100 µM, respectively. The Ki in assay [5] was > 1000 µM.

Regarding `NC(Cc1cc(Cl)c(Cl)c(-c2cccc(C(=O)O)c2)c1)C(=O)O` (centres undefined), the Ki in assay [5] is > 100 µM.

Turning to `NC(Cc1cccc(-c2cccc(C(=O)O)c2)c1)C(=O)O` (centres undefined), the Ki in [5] is > 100 µM.

On to `NC(Cc1cc(Cl)cc(-c2cccc(C(=O)O)c2)c1)C(=O)O` (racemic), for which the Ki in assay [5] is 25 µM; in assay [6], > 100 µM; in assay [7] (read-out: Ki), 5.7 µM; in assay [7] (read-out: pKi (converted)) it was 5.5 µM; in [8], 51 µM. The pKi in assay [8] was 4.31.

For `Nc1ccc(CC(N)C(=O)O)cc1-c1cccc(C(=O)O)c1` (racemic), the Ki in assay [5] is > 100 µM; in assay [6], > 100 µM; in assay [7] (read-out: Ki), 26 µM; in assay [8], > 100 µM.

Turning to `NC(Cc1ccc(Cl)c(-c2cccc(C(=O)O)c2)c1)C(=O)O` (racemic), the Ki in assay [5] was > 100 µM; in assay [6], > 100 µM; in assay [7] (read-out: Ki), 35 µM; in [8], > 100 µM.

As to `Nc1c(Cl)cc(CC(N)C(=O)O)cc1-c1cccc(C(=O)O)c1` (racemic), the Ratio Ki in the assay listed under Rattus norvegicus stood at 20. The Ki was > 100 µM in [5]; > 100 µM in [6]; 4.9 µM in [7] (read-out: Ki); 4.68 µM in [7] (read-out: pKi (converted)); 100 µM in assay [8].

For `NC(Cc1cc(-c2cccc(C(=O)O)c2)cc([N+](=O)[O-])c1)C(=O)O` (racemic), the Ki in [5] is > 100 µM; in assay [6] it was > 100 µM; in assay [7] (read-out: Ki), 32 µM; in [8], 38 µM. This molecule also showed a pKi in [8] of 4.43.

As to `NC(Cc1cc(-c2cccc(C(=O)O)c2)c(Cl)c([N+](=O)[O-])c1)C(=O)O` (racemic), the Ki was > 100 µM in [5]; 32 µM in assay [6]; 6.1 µM in [7] (read-out: Ki); 5.89 µM in [7] (read-out: pKi (converted)); 62 µM in assay [8]. Moreover, the pKi was 4.5 in assay [6] and 4.21 in assay [8].

For `NC(Cc1ccc([N+](=O)[O-])c(-c2cccc(C(=O)O)c2)c1)C(=O)O` (racemic), the Ki in [5] is 23 µM; in assay [6] it was > 100 µM; in assay [7] (read-out: Ki) it was 7.2 µM; in assay [8], 65 µM. In [8], this molecule displayed a negative logarithm of the Ki (pKi) of 4.19.

As to `Nc1c(-c2cccc(C(=O)O)c2)cc(CC(N)C(=O)O)cc1[N+](=O)[O-]` (racemic), the Ki is > 100 µM in assay [5]; > 100 µM in assay [6]; 7.5 µM in [7] (read-out: Ki); 7.08 µM in assay [7] (read-out: pKi (converted)); > 100 µM in assay [8].

With `NC(Cc1cc(Cl)c(O)c(-c2cccc(C(=O)O)c2)c1)C(=O)O` (racemic), in the assay filed under Rattus norvegicus, the Ratio Ki stood at 2. For the same molecule, the Ki is 11 µM in assay [5], > 100 µM in assay [6], 5.5 µM in [7] (read-out: Ki) and > 100 µM in assay [8].

Usually IC50 stands for the concentration needed to halve the response being measured. The low end stands for greater potency in that assay, the high end for weaker potency in that assay. Usually pKi stands for the Ki on a negative log10 scale, so that one unit is a factor of ten. Low values mean a large Ki, high ones a small Ki.
